In patent US12209096B2, “Compounds and compositions for inducing chondrogenesis” (NOVARTIS AG, priority 2017, dated 2025):
Read-outs that look alike come from different tables or passages of the source.

System: NHACs
Experiment: calcium flux assay
Assay type: cell-based, human
Conditions: for Emax: read-out: (A) % Efficacy
Method in brief: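 FLIPR fluorescence (ex 470–495 nm, em 515–575 nm) was read before and after compound dispense at the indicated dose. Chondrocytes (NHACs), 2000 cells/well, had been dye-loaded 24 h after plating with Calcium 5 in HBSS/HEPES plus 5 mM probenecid, 1 h, room temperature.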

COc1ccc(NC(=O)[C@@H]2[C@@H]3O[C@@H]([C@H]4C[C@H]43)[C@@H]2c2cccc(C(F)(F)F)n2)cn1 [Example 35, (1S,2S,4R,5R,6S,7S)—N-(6-methoxypyridin-3-yl)-7-(6-(trifluoromethyl)pyridin-2-yl)-8-oxatricyclo[3.2.1.0^2,4]octane-6-carboxamide]
EC50 (Homo sapiens): > 50 µM | Emax (Homo sapiens): 0%

O=C(Nc1ccc(Cl)c(Cl)c1)[C@H]1[C@@H](c2ccnc(F)c2)[C@H]2O[C@@H]1C[C@@H]2O (racemic) [Example 52, rac-(1R,2S,3S,4R,5S)—N-(3,4-dichlorophenyl)-3-(2-fluoropyridin-4-yl)-5-hydroxy-7-oxabicyclo[2.2.1]heptane-2-carboxamide]
EC50 (Homo sapiens): > 50 µM | Emax (Homo sapiens): 4%

Cc1cc([C@H]2[C@H]3O[C@H](C[C@H]3F)[C@@H]2C(=O)Nc2ccc(OC(F)(F)F)c(F)c2)ccn1 [Example 100, (1R,2R,3S,4R,5R)-5-fluoro-N-(3-fluoro-4-(trifluoromethoxy)phenyl)-3-(2-methylpyridin-4-yl)-7-oxabicyclo[2.2.1]heptane-2-carboxamide]
EC50 (Homo sapiens): 18 µM | Emax (Homo sapiens): 310%

CO[C@H]1C[C@H]2O[C@@H]1[C@H](c1ccnc(C)c1)[C@H]2C(=O)Nc1ccc(Cl)c(Cl)c1 [Example 155, (1R,2R,3S,4R,5S)—N-(3,4-dichlorophenyl)-5-methoxy-3-(2-methylpyridin-4-yl)-7-oxabicyclo[2.2.1]heptane-2-carboxamide]
EC50 (Homo sapiens): 26 µM | Emax (Homo sapiens): 262%

O=C(Nc1cnc(Cl)c(Cl)c1)[C@@H]1[C@@H]2O[C@@H]([C@H]3C[C@H]32)[C@@H]1c1ccncc1 [Example 43a, (1S,2S,4R,5R,6S,7S)—N-(5,6-dichloropyridin-3-yl)-7-(pyridin-4-yl)-8-oxatricyclo[3.2.1.0^24]octane-6-carboxamide]
(A) % Efficacy: 0% | EC50: > 50 µM

O=C(Nc1ccc(Cl)c(Cl)c1)[C@@H]1[C@@H](c2ccncc2)[C@H]2O[C@@H]1C[C@@H]2O [Example 150, (1R,2R,3S,4R,5S)—N-(3,4-dichlorophenyl)-5-hydroxy-3-(pyridin-4-yl)-7-oxabicyclo[2.2.1]heptane-2-carboxamide]
EC50 (Homo sapiens): > 50 µM | Emax (Homo sapiens): 5%

CO[C@H]1C[C@H]2O[C@@H]1[C@H](c1ccnc(C)c1)[C@@H]2C(=O)Nc1ccc(Cl)c(Cl)c1 [Example 63, (1R,2S,3S,4R,5S)—N-(3,4-dichlorophenyl)-5-methoxy-3-(2-methylpyridin-4-yl)-7-oxabicyclo[2.2.1]heptane-2-carboxamide]
EC50 (Homo sapiens): > 50 µM | Emax (Homo sapiens): 9%

Cc1cc([C@@H]2[C@@H]3O[C@@H](C[C@H]3O)[C@@H]2C(=O)Nc2ccc(Cl)c(Cl)c2)ccn1 (single isomer, unassigned) [Example 53b]
EC50 (Homo sapiens): > 50 µM | Emax (Homo sapiens): 119%

Cc1cc([C@@H]2[C@@H]3O[C@@H]([C@H]4C[C@H]43)[C@@H]2C(=O)Nc2cnc(Cl)c(Cl)c2)ccn1 (single isomer, unassigned) [Example 46]
EC50 (Homo sapiens): > 50 µM | Emax (Homo sapiens): 0%

Cc1cc([C@@H]2[C@@H](C(=O)Nc3ccc(Cl)c(Cl)c3)[C@@H]3O[C@H]2C[C@@H]3F)ccn1 (single isomer, unassigned) [Example 93]
EC50 (Homo sapiens): > 50 µM | Emax (Homo sapiens): 7%

O=C(Nc1cnc(Cl)c(Cl)c1)[C@@H]1[C@H]2O[C@H]([C@@H]3C[C@@H]32)[C@H]1c1ccnc(F)c1F (single isomer, unassigned) [Example 73]
EC50 (Homo sapiens): 16 µM | Emax (Homo sapiens): 127%

Cc1cc([C@@H]2[C@@H]3O[C@@H](C[C@H]3O)[C@@H]2C(=O)Nc2cnc(Cl)c(Cl)c2)ccn1 (single isomer, unassigned) [Example 7]
EC50 (Homo sapiens): > 50 µM | Emax (Homo sapiens): 0%

Cc1cc([C@H]2[C@H]3O[C@H]([C@H](O)[C@@H]3O)[C@@H]2C(=O)Nc2cnc(Cl)c(Cl)c2)ccn1 [Example 162, (1S,2R,3S,4R,5S,6R)—N-(5,6-dichloropyridin-3-yl)-5,6-dihydroxy-3-(2-methylpyridin-4-yl)-7-oxabicyclo[2.2.1]heptane-2-carboxamide]
EC50 (Homo sapiens): > 50 µM | Emax (Homo sapiens): 25%

Nc1ncc([C@@H]2[C@@H](C(=O)Nc3ccc(Cl)c(Cl)c3)[C@@H]3O[C@H]2C[C@H]3F)cn1 [Example 114, (1S,2R,3S,4S,6R)-3-(2-aminopyrimidin-5-yl)-N-(3,4-dichlorophenyl)-6-fluoro-7-oxabicyclo[2.2.1]heptane-2-carboxamide]
EC50 (Homo sapiens): 30 µM | Emax (Homo sapiens): 127%

Cc1cc([C@H]2[C@H]3O[C@H](C[C@@H]3O)[C@H]2C(=O)Nc2ccc(Cl)c(Cl)c2)ccn1 (racemic) [Example 53, rac-(1R,2S,3S,4R,5S)—N-(3,4-dichlorophenyl)-5-hydroxy-3-(2-methylpyridin-4-yl)-7-oxabicyclo[2.2.1]heptane-2-carboxamide]
EC50 (Homo sapiens): > 50 µM | Emax (Homo sapiens): 43%

Nc1cc([C@H]2[C@H]3O[C@H](C[C@@H]3O)[C@H]2C(=O)Nc2ccc(Cl)c(Cl)c2)ccn1 [Example 57, (1R,2S,3S,4R,5S)-3-(2-aminopyridin-4-yl)-N-(3,4-dichlorophenyl)-5-hydroxy-7-oxabicyclo[2.2.1]heptane-2-carboxamide]
EC50 (Homo sapiens): > 50 µM | Emax (Homo sapiens): 56%

Cc1cc([C@@H]2[C@@H](C(=O)Nc3ccc(Cl)c(Cl)c3)[C@H]3C[C@@](C)(O)[C@@H]2O3)ccn1 [Example 178, (1R,2R,3S,4R,5R)—N-(3,4-dichlorophenyl)-5-hydroxy-5-methyl-3-(2-methylpyridin-4-yl)-7-oxabicyclo[2.2.1]heptane-2-carboxamide]
EC50 (Homo sapiens): > 50 µM | Emax (Homo sapiens): 1%

O=C(Nc1ccc(Cl)c(Cl)c1)[C@H]1[C@@H](c2ccnc(F)c2F)[C@H]2O[C@@H]1C[C@@H]2O [Example 59, (1R,2S,3S,4R,5S)—N-(3,4-dichlorophenyl)-3-(2,3-difluoropyridin-4-yl)-5-hydroxy-7-oxabicyclo[2.2.1]heptane-2-carboxamide]
EC50 (Homo sapiens): 1.2 µM | Emax (Homo sapiens): 254%

Cc1ccc([C@H]2[C@H]3O[C@H](C[C@@H]3F)[C@@H]2C(=O)Nc2ccc(Cl)c(Cl)c2)cn1 [Example 115, (1R,2R,3S,4R,5S)—N-(3,4-dichlorophenyl)-5-fluoro-3-(6-methylpyridin-3-yl)-7-oxabicyclo[2.2.1]heptane-2-carboxamide]
EC50 (Homo sapiens): 33 µM | Emax (Homo sapiens): 49%

Cc1cc([C@H]2[C@H]3O[C@H](C[C@H]3F)[C@H]2C(=O)Nc2ccc(Cl)c(Cl)c2)ccn1 [Example 13, (1R,2S,3S,4R,5R)-N-(3,4-dichlorophenyl)-5-fluoro-3-(2-methylpyridin-4-yl)-7-oxabicyclo[2.2.1]heptane-2-carboxamide]
EC50 (Homo sapiens): 4.5 µM | Emax (Homo sapiens): 68%

O=C(Nc1ccc(Cl)c(Cl)c1)[C@H]1[C@@H]2O[C@@H]([C@@H](O)[C@H]2O)[C@@H]1c1ccncc1 [Example 160, (1S,2R,3S,4R,5S,6R)—N-(3,4-dichlorophenyl)-5,6-dihydroxy-3-(pyridin-4-yl)-7-oxabicyclo[2.2.1]heptane-2-carboxamide]
EC50 (Homo sapiens): > 50 µM | Emax (Homo sapiens): 32%

O=C(Nc1ccc(Cl)c(Cl)c1)[C@@H]1[C@@H](c2ccnc(F)c2)[C@H]2O[C@@H]1C[C@@H]2O (racemic) [Example 142, rac-(1R,2R,3S,4R,5S)—N-(3,4-dichlorophenyl)-3-(2-fluoropyridin-4-yl)-5-hydroxy-7-oxabicyclo[2.2.1]heptane-2-carboxamide]
EC50 (Homo sapiens): 28 µM | Emax (Homo sapiens): 142%
